{"source": "patent US12533333B2", "about": "“Method of treatment of obesity” (Queen Mary University of London, priority 2016, dated 2026)", "key": {"phosphorylated CaMKII [1]": {"test_system": "phosphorylated CaMKII", "assay": "pCaMKII activation in human colonic mucosa / proximal colon", "format": "cell-based", "details": "100 MM (heading of Example 6), FIG. 9"}, "phosphorylated CaMKII [2]": {"test_system": "phosphorylated CaMKII", "details": "via GPR120, not via pERK; background; cited from earlier work"}, "phosphorylated ERK [3]": {"test_system": "phosphorylated ERK", "assay": "pERK activation in human colonic mucosa / proximal colon", "format": "cell-based"}, "phosphorylated ERK [4]": {"test_system": "phosphorylated ERK", "details": "human colonic mucosa / enteroendocrine cells, previously shown; cited from earlier work"}, "[5]": {"details": "infused into the small intestine through a nasogastric tube; cited from earlier work"}, "[6]": {"details": "in vivo; cited from earlier work"}}, "note": "Entries after “also recorded” stand apart in the source; their conditions may differ.", "data": [{"smiles": "CC/C=C\\C/C=C\\C/C=C\\CCCCCCCC(=O)O", "note": "[ALA, (9Z,12Z,15Z)-9,12,15-Octadecatrienoic acid]", "values": [{"measurement": "expression of cell activation marker pCamKii", "setting": "phosphorylated CaMKII [1]", "result": "potently induce expression; also recorded: activate"}, {"measurement": "activation of pCalmodulin kinase II (pCAMKII)", "setting": "phosphorylated CaMKII [2]", "result": "activate"}, {"measurement": "expression of cell activation marker pERK", "setting": "phosphorylated ERK [3]; human colonic mucosa, 100 MM (heading of Example 6), FIG. 9", "result": "potently induce expression; also recorded: activate"}]}, {"smiles": "c1ccc2c(Cc3c[nH]c4ccccc34)c[nH]c2c1", "note": "[DIM, 3,3′-diindolylmethane]", "values": [{"measurement": "activation of pERK in colonocytes", "setting": "phosphorylated ERK [3]; in combination with GPR120 agonist TUG891 and GPR84 agonist lauric acid (FIG. 8)", "result": "potently activates"}]}, {"smiles": "CCCCCCCCCCCC(=O)O", "note": "[lauric acid]", "values": [{"measurement": "activation of intracellular pathway as measured by phosphorylated ERK", "setting": "phosphorylated ERK [4]", "result": "activates"}, {"measurement": "food intake", "setting": "[5]", "result": "reduces food intake more potently than other fatty acids"}, {"measurement": "plasma levels of glucagon-like peptide-1 (GLP-1)", "setting": "[6]", "result": "increasing"}, {"measurement": "plasma levels of peptide YY (PYY)", "setting": "[6]", "result": "increasing"}]}]}
